Assay type in all cases: in vivo
In assay [1] the test system is blackgrass (Alopecurus myosuroides). The assay is described as follows: Test A postemergence. The settings on record: Alopecurus myosuroides, post-emergence, 240 h; for pest or weed control at 125 g/ha: 125 g ai/ha; for pest or weed control at 500 g/ha: 500 g ai/ha. The essentials:
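Visual injury scores from 0, no effect, to 100, complete control, were assigned versus untreated controls roughly 10 d after treatment in the greenhouse. Test chemicals, formulated with surfactant in a non-phytotoxic solvent, were applied to planted seeds as a preemergence soil spray or postemergence to one- to two-leaf plants 2 to 10 cm tall, in loam–sand soil.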

Assay [2] has as its system barnyardgrass (Echinochloa crus-galli). Description: Test B flooded paddy test. The settings on record: Echinochloa crus-galli, Flood, 250 g ai/ha, read-out: Barnyardgrass plant response rating. A digest of the protocol:
(§1)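 Response scored visually against untreated controls, 0 = no effect and 100 = complete control, 13–15 d after treatment in the greenhouse. Compounds added to paddy water held 3 cm above soil surface. Treatment given at 2-leaf stage.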

Assay [3] has as its system ducksalad (Heteranthera limosa). The assay is described as follows: Test B flooded paddy test. The note with it: Heteranthera limosa, Flood, 250 g ai/ha, read-out: Ducksalad plant response rating. A digest of the protocol:
as §1

The next assay concerns rice (Oryra sativa). The assay is described as follows: Test B flooded paddy test. The settings on record: Oryza sativa, Flood, 250 g ai/ha, read-out: Rice plant response rating. The essentials:
as §1

Assay [4] deals with sedge, umbrella (small-flower umbrella sedge, Cyperus difformis). The assay is described as follows: Test B flooded paddy test. The settings on record: Cyperus difformis, Flood, 250 g ai/ha, read-out: Sedge, Umbrella plant response rating. A digest of the protocol:
as §1

[5] abbreviates: postemergence, visual injury rating after approximately 10 d, read-out: Blackgrass plant response rating (0 to 100 scale, 0 no effect, 100 complete control).
[6] abbreviates: scale of 0 to 100 where 0 is no effect and 100 is complete control.
Setting [7] is: postemergence, visual injury on 0 to 100 scale (0 no effect, 100 complete control), approx. 10 d, read-out: Blackgrass plant response rating.
The mark [8] stands for this setting: postemergence, 0 to 100 scale, 0 is no effect, 100 is complete control, read-out: Blackgrass plant response rating.
Setting [9] is: 0 to 100 scale where 0 is no effect and 100 is complete control.
[10] abbreviates: Postemergence, visual injury after approximately 10 d, 0 to 100 scale where 0 is no effect and 100 is complete control, read-out: Plant response rating, Blackgrass.
The mark [11] stands for this setting: postemergence, visual injury, 0 to 100 scale (0 no effect, 100 complete control), approx. 10 d, read-out: Plant response rating, Blackgrass.

Read-outs that look alike come from different tables or passages of the source.

Consider `CN1C[C@H](c2cc(F)c(F)c(F)c2)[C@@H](C(=O)Nc2ccccc2F)C1=O` [Compound 878], for which the pest or weed control at 125 g/ha in assay [1] (setting [5]) came to 60%. Besides, the pest or weed control at 250 g/ha came out at 85% in assay [2] (setting [6]), 100% in assay [3] (setting [6]), 0% in the assay on rice (Oryra sativa) (setting [6]) and 0% in assay [4] (setting [6]).
As to `COc1cc(C(F)(F)F)ccc1[C@H]1CN(C)C(=O)[C@@H]1C(=O)Nc1ccccc1SC` [Compound 860], in assay [1] (setting [5]), the pest or weed control at 125 g/ha stood at 0%. For the same compound, the pest or weed control at 250 g/ha in assay [2] (setting [6]) is 0%; in assay [3] (setting [6]) it was 90%; with rice (Oryra sativa) (setting [6]) it was 0%; in assay [4] (setting [6]), 0%.
`CN1C[C@H](c2cccc(COC(F)F)c2)[C@@H](C(=O)Nc2ccccc2F)C1=O` [Compound 875]: the pest or weed control at 125 g/ha in assay [1] (setting [5]) was 20%. For the same compound, the pest or weed control at 250 g/ha in assay [2] (setting [6]) worked out at 70%; in assay [3] (setting [6]), 100%; in the assay with rice (Oryra sativa) (setting [6]), 0%; in assay [4] (setting [6]), 0%.
As to `COc1c(F)ccc([C@H]2CNC(=O)[C@@H]2C(=O)Nc2ccc(F)c(F)c2F)c1Cl` [Compound 890], the pest or weed control at 125 g/ha in assay [1] (setting [5]) came to 20%. Besides, the pest or weed control at 250 g/ha stood at 60% in assay [2] (setting [6]), 90% in assay [3] (setting [6]), 0% with rice (Oryra sativa) (setting [6]) and 0% in assay [4] (setting [6]).
With `CN1C[C@H](c2cc(F)cc(F)c2)[C@@H](C(=O)Nc2ncccc2Cl)C1=O` [Compound 1097], the pest or weed control at 125 g/ha in assay [1] (setting [7]) was determined as 0%. For the same compound, the pest or weed control at 500 g/ha in assay [1] (setting [8]) is 0%. Further, the pest or weed control at 250 g/ha (in assay [2] (setting [9]); in assay [3] (setting [9]); with rice (Oryra sativa) (setting [9]); in assay [4] (setting [9])) was 0% throughout.
`CSc1ccccc1NC(=O)[C@H]1C(=O)N(C)C[C@@H]1c1ccc(C(F)(F)F)nc1` [Compound 1198]: the pest or weed control at 125 g/ha in assay [1] (postemergence, visual injury vs untreated controls after approx. 10 d, 0 = no effect, 100 = complete control, read-out: Blackgrass plant response rating (0 to 100 scale)) came to 20%. Also, the pest or weed control at 500 g/ha in assay [1] (setting [8]) is 60%. For the same compound, the pest or weed control at 250 g/ha in assay [2] (setting [9]) amounted to 20%; in assay [3] (setting [9]), 40%; in the assay with rice (Oryra sativa) (setting [9]) it was 0%; in assay [4] (setting [9]), 30%.
For the compound `CN1C[C@H](c2csc(C(F)F)c2)[C@@H](C(=O)Nc2ccccc2F)C1=O` [Compound 1123], in assay [1] (setting [7]), the pest or weed control at 125 g/ha was found to be 30%. Moreover, in assay [1] (setting [8]), the pest or weed control at 500 g/ha came out at 80%. Further, the pest or weed control at 250 g/ha in assay [2] (setting [9]) was 70%; in assay [3] (setting [9]) it was 100%; in the assay with rice (Oryra sativa) (setting [9]) it was 25%; in assay [4] (setting [9]) it was 0%.
On to `COc1ccc([C@H]2CN(C)C(=O)[C@@H]2C(=O)Nc2cccc(F)c2F)cc1OC` [Compound 853], for which, in assay [1] (setting [5]), the pest or weed control at 125 g/ha is 20%. In addition, the pest or weed control at 250 g/ha in assay [2] (setting [6]) was 70%; in assay [3] (setting [6]), 40%; with rice (Oryra sativa) (setting [6]), 20%; in assay [4] (setting [6]), 0%.
Regarding `O=C1NC[C@H](c2cc(C(F)F)cs2)[C@H]1C(=O)Nc1ccccc1F` [Compound 1116], in assay [1] (setting [7]), the pest or weed control at 125 g/ha was found to be 0%. Also, the pest or weed control at 500 g/ha in assay [1] (setting [8]) was determined as 30%. In addition, the pest or weed control at 250 g/ha in assay [2] (setting [9]) worked out at 50%; in assay [3] (setting [9]), 100%; with rice (Oryra sativa) (setting [9]), 20%; in assay [4] (setting [9]), 75%.
`Cc1cc([C@H]2CN(C)C(=O)[C@@H]2C(=O)Nc2cccc(F)c2F)ccc1Br` [Compound 1099]: the pest or weed control at 125 g/ha in assay [1] (setting [7]) turned out to be 20%. Besides, in assay [1] (setting [8]), the pest or weed control at 500 g/ha turned out to be 40%. The pest or weed control at 250 g/ha in assay [2] (setting [9]) was 0%; in assay [3] (setting [9]) it was 100%; in the assay on rice (Oryra sativa) (setting [9]) it was 0%; in assay [4] (setting [9]) it was 0%.
With `Cc1ccc([C@H]2CNC(=O)[C@@H]2C(=O)Nc2ccccc2F)cc1C` [Compound 1033], in assay [1] (setting [10]), the pest or weed control at 125 g/ha is 0%. In addition, the pest or weed control at 500 g/ha in assay [1] (setting [11]) stood at 40%. Further, the pest or weed control at 250 g/ha in assay [2] (setting [9]) was 50%; in assay [3] (setting [9]), 100%; in the assay on rice (Oryra sativa) (setting [9]) it was 0%; in assay [4] (setting [9]), 0%.
As for `Cc1cc(C)cc([C@H]2CNC(=O)[C@@H]2C(=O)Nc2cccc(F)c2F)c1` [Compound 889], the pest or weed control at 125 g/ha in assay [1] (setting [5]) stood at 20%. For the same compound, the pest or weed control at 250 g/ha in assay [2] (setting [6]) amounted to 60%; in assay [3] (setting [6]) it was 75%; with rice (Oryra sativa) (setting [6]), 0%; in assay [4] (setting [6]), 0%.
For the compound `CSc1ccccc1NC(=O)[C@H]1C(=O)N(C)C[C@@H]1c1cccc(COC(F)F)c1` [Compound 876], the pest or weed control at 125 g/ha in assay [1] (setting [5]) was 0%. The pest or weed control at 250 g/ha worked out at 0% in assay [2] (setting [6]), 85% in assay [3] (setting [6]), 0% with rice (Oryra sativa) (setting [6]) and 0% in assay [4] (setting [6]).
With `Cc1cc([C@H]2CN(C)C(=O)[C@@H]2C(=O)Nc2ccc(F)cc2F)ccc1Cl` [Compound 930], the pest or weed control at 125 g/ha in assay [1] (setting [10]) was determined as 20%. In addition, the pest or weed control at 250 g/ha stood at 50% in assay [2] (setting [6]), 80% in assay [3] (setting [6]), 0% with rice (Oryra sativa) (setting [6]) and 0% in assay [4] (setting [6]).
For the compound `CN1C[C@H](c2csc(C(F)F)c2)[C@@H](C(=O)Nc2cccc(F)c2F)C1=O` [Compound 1122], the pest or weed control at 125 g/ha in assay [1] (setting [7]) was determined as 40%. The pest or weed control at 500 g/ha in assay [1] (setting [8]) was 60%. Besides, the pest or weed control at 250 g/ha in assay [2] (setting [9]) stood at 70%; in assay [3] (setting [9]), 100%; with rice (Oryra sativa) (setting [9]), 25%; in assay [4] (setting [9]), 30%.
`CN1C[C@H](c2cccc(C3CC3)c2)[C@@H](C(=O)Nc2ccccc2S(C)(=O)=O)C1=O` [Compound 817]: in assay [1] (setting [5]), the pest or weed control at 125 g/ha stood at 40%. Moreover, the pest or weed control at 250 g/ha is 60% in assay [2] (setting [6]), 90% in assay [3] (setting [6]), 0% in the assay on rice (Oryra sativa) (setting [6]) and 0% in assay [4] (setting [6]).
Take `COc1cc(C(F)(F)F)ccc1[C@H]1CN(C)C(=O)[C@@H]1C(=O)Nc1cccc(F)c1F` [Compound 859]: the pest or weed control at 125 g/ha in assay [1] (setting [5]) stood at 30%. Further, the pest or weed control at 250 g/ha in assay [2] (setting [6]) turned out to be 65%; in assay [3] (setting [6]), 100%; in the assay with rice (Oryra sativa) (setting [6]), 0%; in assay [4] (setting [6]), 0%.
Regarding `Cc1ccc([C@H]2CNC(=O)[C@@H]2C(=O)Nc2cccc(F)c2C)cc1C` [Compound 1035], the pest or weed control at 125 g/ha in assay [1] (setting [10]) was determined as 40%. Besides, the pest or weed control at 500 g/ha in assay [1] (setting [11]) was 60%. In addition, the pest or weed control at 250 g/ha in assay [2] (setting [9]) came out at 50%; in assay [3] (setting [9]), 100%; in the assay with rice (Oryra sativa) (setting [9]) it was 0%; in assay [4] (setting [9]) it was 0%.
For the compound `O=C1NC[C@H](c2ccc3c(c2)OCO3)[C@H]1C(=O)Nc1ccc(F)cc1F` [Compound 1026], the pest or weed control at 125 g/ha in assay [1] (setting [10]) was 0%. Further, the pest or weed control at 500 g/ha in assay [1] (setting [11]) amounted to 0%. For the same compound, the pest or weed control at 250 g/ha is 0% in assay [2] (setting [9]), 100% in assay [3] (setting [9]), 20% in the assay with rice (Oryra sativa) (setting [9]) and 0% in assay [4] (setting [9]).
For `CS(=O)(=O)c1ccccc1NC(=O)[C@H]1C(=O)NC[C@@H]1c1cc(F)c(C(F)(F)F)c(F)c1` [Compound 839], the pest or weed control at 250 g/ha in assay [2] (setting [6]) turned out to be 0%; in assay [3] (setting [6]) it was 70%; with rice (Oryra sativa) (setting [6]) it was 0%; in assay [4] (setting [6]), 0%.
As to `CSc1ccccc1NC(=O)[C@H]1C(=O)NC[C@@H]1c1ccc(C)c(C)c1` [Compound 1036], the pest or weed control at 125 g/ha in assay [1] (setting [10]) turned out to be 0%. The pest or weed control at 500 g/ha in assay [1] (setting [11]) was 0%.

Source of the values: US12077503B2, “Substituted cyclic amides and their use as herbicides” (FMC CORPORATION, priority 2015, dated 2024).
